# Assay results from patent US10532106B2 (priority 2014, dated 2020).
# Where two headings read alike, the source gives them in different places. Numbered stars: 1 amine (or outer) side, 2 acyl side, 3 side chain; on linkers, the order of the positions; unused ones are H or OH. Bridge positions count the residues as written; N and C are the ends. Square brackets hold non-standard residues; d marks the D form. Peptide text beside a SMILES is read from it. Phe(F5) = N[C@@H](Cc1c(F)c(F)c(F)c(F)c1F)C(=O)O; 1Nal = N[C@@H](Cc1cccc2ccccc12)C(=O)O; 2Nal = N[C@@H](Cc1ccc2ccccc2c1)C(=O)O; TBMB = c1c(C[*:1])cc(C[*:3])cc1C[*:2]; Cha = N[C@@H](CC1CCCCC1)C(=O)O; Chg = N[C@H](C(=O)O)C1CCCCC1; Tle = CC(C)(C)[C@H](N)C(=O)O; Sar = CNCC(=O)O
# Target: T1, MT1-MMP hemopexin domain (Homo sapiens, UniProt P50281)
# T1 construct: residues Cys319-Gly511 from the human gene; His6 (N); made in house; host or cells: HEK293 (transient), pEXPR-IBA42 vector
# Experiment: Competition assay using fluorescence polarisation
# Format: binding
# Details: read-out: Kd
# From the text: Here, a pre-formed complex of PEX with the fluorescent PEX-binding tracer is titrated with free, non-fluoresceinated bicyclic peptide. Since all 17-69-based peptides are expected to bind at the same site, the titrant will displace the fluorescent tracer from PEX. Dissociation of the complex can be measured quantitatively, and the Kd of the competitor (titrant) to the target protein determined. The advantage of the competition method is that the affinities of non-fluoresceinated bicyclic peptides can be determined accurately and rapidly.
# Subsequently, the non-fluorescent competitor bicyclic peptide (usually just the bicycle core sequence) is titrated, such that it displaces the fluorescent tracer from the target protein. The displacement of the tracer is measured and associated with a drop in fluorescence polarisation. The drop in fluorescence polarisation is proportional to the fraction of target protein bound with the non-fluorescent titrant, and thus is a measure of the affinity of titrant to target protein.
# The raw data is fit to the analytical solution of the cubic equation that describes the equilibria between fluorescent tracer, titrant, and binding protein. The fit requires the value of the affinity of fluorescent tracer to the target protein, which can be determined separately by direct binding FP experiments (see previous section).
# [1] = Table 8, substitutions at position 4
# [2] = Table 9, tolerated substitutions at positions 9 and 11
SMILES,Kd [1] [nM],other results
"CC[C@H](C)[C@@H]1NC(=O)[C@H](CC(=O)O)NC(=O)[C@H](Cc2ccc(O)cc2)NC(=O)[C@H](Cc2ccccc2)NC(=O)[C@H](CC(=O)O)NC(=O)[C@H](CCC(=O)O)NC(=O)[C@@H]2CSCc3cc(cc(c3)CSC[C@@H](C(=O)N[C@@H](C)C(N)=O)NC1=O)CSC[C@H](NC(=O)[C@H](C)N)C(=O)N[C@@H](Cc1ccc(O)cc1)C(=O)N[C@@H](CC(N)=O)C(=O)N[C@@H](CCC(=O)O)C(=O)N[C@@H](Cc1ccccc1)C(=O)NCC(=O)N2 [17-69-07-N001, A-(17-69-07)-A]",,"Kd (Table 3, Competition, tracer A-(17-69-12)-A-Sar6-K(Fluorescein)): 1.65 ± 0.29 nM"
"CC[C@H](C)[C@@H]1NC(=O)[C@H](CC(=O)O)NC(=O)[C@H](Cc2ccc(O)cc2)NC(=O)[C@H](Cc2ccccc2)NC(=O)[C@H](CC(=O)O)NC(=O)[C@H](CCC(=O)O)NC(=O)[C@@H]2CSCc3cc(cc(c3)CSC[C@H](NC(C)=O)C(=O)N[C@@H](Cc3ccc(O)cc3)C(=O)N[C@@H](CC(N)=O)C(=O)N[C@@H](CCC(=O)O)C(=O)N[C@@H](Cc3ccc4ccccc4c3)C(=O)NCC(=O)N2)CSC[C@@H](C(N)=O)NC1=O [17-69-07-N068, Ac-(17-69-07) 2NAl4] (Ac-CYNE[2Nal]GCEDFYDIC-NH2; linker 1-7-14 via TBMB)",0.7 ± 0.19,
"CC[C@H](C)[C@@H]1NC(=O)[C@H](CC(=O)O)NC(=O)[C@H](Cc2ccc(O)cc2)NC(=O)[C@H](Cc2ccccc2)NC(=O)[C@H](CC(=O)O)NC(=O)[C@H](CCC(=O)O)NC(=O)[C@@H]2CSCc3cc(cc(c3)CSC[C@H](NC(C)=O)C(=O)N[C@@H](Cc3ccc(O)cc3)C(=O)N[C@@H](CC(N)=O)C(=O)N[C@@H](CCC(=O)O)C(=O)N[C@@H](Cc3ccc(O)cc3)C(=O)NCC(=O)N2)CSC[C@@H](C(N)=O)NC1=O [17-69-07-N057, Ac-(17-69-07) Tyr4] (Ac-CYNEYGCEDFYDIC-NH2; linker 1-7-14 via TBMB)",1.78 ± 0.45,
"CC[C@H](C)[C@@H]1NC(=O)[C@H](CC(=O)O)NC(=O)[C@H](Cc2ccc(O)cc2)NC(=O)[C@H](Cc2ccccc2)NC(=O)[C@H](CC(=O)O)NC(=O)[C@H](CCC(=O)O)NC(=O)[C@@H]2CSCc3cc(cc(c3)CSC[C@H](NC(=O)[C@H](C)NC(=O)CN(C)C(=O)CN(C)C(=O)CN(C)C(=O)CN(C)C(=O)CN(C)C(=O)CN(C)C(=O)CN(C)C(=O)CN(C)C(=O)CN(C)C(=O)CN(C)C(=O)CNC(C)=O)C(=O)N[C@@H](Cc3ccc(O)cc3)C(=O)N[C@@H](CC(N)=O)C(=O)N[C@@H](CCC(=O)O)C(=O)N[C@@H](Cc3ccccc3)C(=O)NCC(=O)N2)CSC[C@@H](C(N)=O)NC1=O [17-69-07-N225, Ac-G-Sar10-A-(17-69-07)] (Ac-G[Sar][Sar][Sar][Sar][Sar][Sar][Sar][Sar][Sar][Sar]ACYNEFGCEDFYDIC-NH2; linker 13-19-26 via TBMB)",,"Kd (Table 11, G-Sar10-A addition): 0.95 ± 0.1 nM"
"CC[C@H](C)[C@@H]1NC(=O)[C@H](CC(=O)O)NC(=O)[C@H](Cc2c(F)c(F)c(F)c(F)c2F)NC(=O)[C@H](Cc2ccccc2)NC(=O)[C@H](CC(=O)O)NC(=O)[C@H](CCC(=O)O)NC(=O)[C@@H]2CSCc3cc(cc(c3)CSC[C@H](NC(C)=O)C(=O)N[C@@H](Cc3ccc(O)cc3)C(=O)N[C@@H](CC(N)=O)C(=O)N[C@@H](CCC(=O)O)C(=O)N[C@@H](Cc3ccccc3)C(=O)NCC(=O)N2)CSC[C@@H](C(N)=O)NC1=O [17-69-07-N182, Ac-(17-69-07) 5FPhe9] (Ac-CYNEFGCEDF[Phe(F5)]DIC-NH2; linker 1-7-14 via TBMB)",,Kd [2]: 13.1 nM
"CC(=O)N[C@H]1CSCc2cc3cc(c2)CSC[C@H](NC(=O)CNC(=O)[C@H](Cc2ccccc2)NC(=O)[C@H](CCC(=O)O)NC(=O)[C@H](CC(N)=O)NC(=O)[C@H](Cc2ccc(O)cc2)NC1=O)C(=O)N[C@@H](CCC(=O)O)C(=O)N[C@@H](CC(=O)O)C(=O)N[C@@H](Cc1ccccc1)C(=O)N[C@@H](Cc1ccc(O)cc1)C(=O)N[C@@H](CC(=O)O)C(=O)N[C@@H](C(C)(C)C)C(=O)N[C@H](C(N)=O)CSC3 [17-69-07-N100, Ac-(17-69-07) tBuGly11] (Ac-CYNEFGCEDFYD[Tle]C-NH2; linker 1-7-14 via TBMB)",,Kd [2]: 1.56 ± 1.14 nM
"CC[C@H](C)[C@@H]1NC(=O)[C@H](CC(=O)O)NC(=O)[C@H](Cc2ccc(O)cc2)NC(=O)[C@H](Cc2ccccc2)NC(=O)[C@H](CC(=O)O)NC(=O)[C@H](CCC(=O)O)NC(=O)[C@@H]2CSCc3cc(cc(c3)CSC[C@H](NC(C)=O)C(=O)N[C@@H](Cc3ccc(O)cc3)C(=O)N[C@@H](CC(N)=O)C(=O)N[C@@H](CCC(=O)O)C(=O)N[C@@H](CC3CCCCC3)C(=O)NCC(=O)N2)CSC[C@@H](C(N)=O)NC1=O [17-69-07-N139, Ac-(17-69-07) Cha4] (Ac-CYNE[Cha]GCEDFYDIC-NH2; linker 1-7-14 via TBMB)",362,
"CC[C@H](C)[C@@H]1NC(=O)[C@H](CC(=O)O)NC(=O)[C@H](Cc2ccc(O)cc2)NC(=O)[C@H](Cc2ccccc2)NC(=O)[C@H](CC(=O)O)NC(=O)[C@H](CCC(=O)O)NC(=O)[C@@H]2CSCc3cc(cc(c3)CSC[C@H](NC(C)=O)C(=O)N[C@@H](Cc3ccc(O)cc3)C(=O)N[C@@H](CC(N)=O)C(=O)N[C@@H](CCC(=O)O)C(=O)N[C@@H](C3CCCCC3)C(=O)NCC(=O)N2)CSC[C@@H](C(N)=O)NC1=O [17-69-07-N065, Ac-(17-69-07) Chg4] (Ac-CYNE[Chg]GCEDFYDIC-NH2; linker 1-7-14 via TBMB)",> 5000,
"CC[C@H](C)[C@@H]1NC(=O)[C@H](CC(=O)O)NC(=O)[C@H](Cc2ccc(O)cc2)NC(=O)[C@H](Cc2ccccc2)NC(=O)[C@H](CC(=O)O)NC(=O)[C@H](CCC(=O)O)NC(=O)[C@@H]2CSCc3cc(cc(c3)CSC[C@H](NC(C)=O)C(=O)N[C@@H](Cc3ccc(O)cc3)C(=O)N[C@@H](CC(N)=O)C(=O)N[C@@H](CCC(=O)O)C(=O)N[C@@H](CCc3ccccc3)C(=O)NCC(=O)N2)CSC[C@@H](C(N)=O)NC1=O [17-69-07-N140, Ac-(17-69-07) HPhe4]",43.3,
"C[C@H](NC(=O)CN(C)C(=O)CN(C)C(=O)CN(C)C(=O)CN(C)C(=O)CN(C)C(=O)CN(C)C(=O)CN(C)C(=O)CN(C)C(=O)CN(C)C(=O)CN(C)C(=O)CN)C(=O)N[C@H]1CSCc2cc3cc(c2)CSC[C@H](NC(=O)[C@@H](C)NC(=O)[C@H](Cc2cccc4ccccc24)NC(=O)[C@H](CCC(=O)O)NC(=O)[C@H](CC(N)=O)NC(=O)[C@@H](C)NC1=O)C(=O)N[C@@H](CCC(=O)O)C(=O)N[C@@H](CC(=O)O)C(=O)N[C@@H](Cc1ccccc1)C(=O)N[C@@H](Cc1ccc(O)cc1)C(=O)N[C@@H](CC(=O)O)C(=O)N[C@@H](C(C)(C)C)C(=O)N[C@H](C(N)=O)CSC3 [17-69-07-N231, G-Sar10-A-(17-69-07) D-Ala1 1Nal4 D-Ala5 tBuGly11] (H-G[Sar][Sar][Sar][Sar][Sar][Sar][Sar][Sar][Sar][Sar]AC[dA]NE[1Nal][dA]CEDFYD[Tle]C-NH2; linker 13-19-26 via TBMB)",,"Kd (Table 12, molecules selected for plasma stability assessment): 1.07 ± 0.28 nM"
